In ChEMBL document CHEMBL1201862, “PubChem BioAssay data set” (2004):
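Cultured in 96-well plates, cells were exposed to test compound for 48 hours across five concentrations. Abbreviation: GI50, concentration required for 50% inhibition of growth.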 Activity calls are given as the source filed them. No stated cut-off is given here; in the data, active = GI50 up to about 1.1 µM and inactive = higher.

What was measured:
Experiment in all cases: DTP human tumour cell line panel, 48 h
[1] = tested on: IGROV-1
[2] = tested on: DU-145
[3] = tested on: HOP-62
[4] = tested on: SF-268
[5] = tested on: HOP-92
[6] = tested on: K562
[7] = tested on: MDA-MB-231
[8] = tested on: OVCAR-3
[9] = tested on: SN12C
[10] = tested on: OVCAR-5
[11] = tested on: U-251
[12] = tested on: MDA-N
[13] = tested on: ACHN
[14] = tested on: NCI-H522
[15] = tested on: NCI-H23
[16] = tested on: RXF 393
[17] = tested on: EKVX
[18] = tested on: UACC-62
[19] = tested on: T47D

Compound	GI50 [1]	GI50 [2]	GI50 [3]	GI50 [4]	GI50 [5]	GI50 [6]	GI50 [7]	GI50 [8]	GI50 [9]	GI50 [10]	GI50 [11]	GI50 [12]	GI50 [13]	GI50 [14]	GI50 [15]	GI50 [16]	GI50 [17]	GI50 [18]	GI50 [19]
CC(=O)N1C=Cc2c(c(C)c3c([nH]c4ccccc43)c2C)C1	3.76 µM (inactive)	11.5 µM (inactive)	3.02 µM (inactive)	7.4 µM (inactive)	5.4 µM (inactive)	> 100 µM (inactive)	3.2 µM (inactive)	1.74 µM (inactive)	3.8 µM (inactive)	9.25 µM (inactive)	4.89 µM (inactive)	8.75 µM (inactive)	1.09 µM (active)	10.4 µM (inactive)	5.92 µM (inactive)	16.3 µM (inactive)	0.479 µM (active)	–	–
CC1(C)CC2(C)CC1CC2O (stereo unspecified)	> 100 µM (inactive)	> 100 µM (inactive)	> 100 µM (inactive)	> 100 µM (inactive)	–	> 100 µM (inactive)	> 100 µM (inactive)	> 100 µM (inactive)	> 100 µM (inactive)	> 100 µM (inactive)	> 100 µM (inactive)	> 100 µM (inactive)	–	–	> 100 µM (inactive)	> 100 µM (inactive)	> 100 µM (inactive)	> 100 µM (inactive)	–
O=c1o[nH]/c(=N/c2ccccc2)n1-c1ccccc1	> 100 µM (inactive)	–	> 100 µM (inactive)	–	> 100 µM (inactive)	> 100 µM (inactive)	> 100 µM (inactive)	> 100 µM (inactive)	> 100 µM (inactive)	> 100 µM (inactive)	> 100 µM (inactive)	> 100 µM (inactive)	> 100 µM (inactive)	–	> 100 µM (inactive)	> 100 µM (inactive)	> 100 µM (inactive)	> 100 µM (inactive)	–
O=C1C(OC(=O)c2ccccc2)=C(c2ccc(O)cc2)C(=O)C(OC(=O)c2ccccc2)=C1c1ccc(O)cc1	> 100 µM (inactive)	> 100 µM (inactive)	–	> 100 µM (inactive)	> 100 µM (inactive)	> 100 µM (inactive)	> 100 µM (inactive)	38.1 µM (inactive)	> 100 µM (inactive)	> 100 µM (inactive)	40.5 µM (inactive)	> 100 µM (inactive)	> 100 µM (inactive)	> 100 µM (inactive)	> 100 µM (inactive)	–	> 100 µM (inactive)	44.7 µM (inactive)	> 100 µM (inactive)
CC(C)(C)OC(=O)N1CCC23CCCC2C(=O)CC=C13 (stereo unspecified)	> 100 µM (inactive)	> 100 µM (inactive)	> 100 µM (inactive)	> 100 µM (inactive)	38.3 µM (inactive)	> 100 µM (inactive)	> 100 µM (inactive)	> 100 µM (inactive)	> 100 µM (inactive)	> 100 µM (inactive)	> 100 µM (inactive)	–	> 100 µM (inactive)	66.4 µM (inactive)	> 100 µM (inactive)	> 100 µM (inactive)	> 100 µM (inactive)	> 100 µM (inactive)	> 100 µM (inactive)
N#CSC#Cc1ccc(C#CSC#N)cc1	15.5 µM (inactive)	15.1 µM (inactive)	23 µM (inactive)	21.5 µM (inactive)	12.5 µM (inactive)	39.1 µM (inactive)	17.8 µM (inactive)	19.3 µM (inactive)	18 µM (inactive)	19.2 µM (inactive)	21.5 µM (inactive)	17.8 µM (inactive)	16.5 µM (inactive)	11.1 µM (inactive)	18.7 µM (inactive)	18.7 µM (inactive)	18.5 µM (inactive)	18.1 µM (inactive)	–
O=C(c1ccc(Cl)cc1)N(C(=S)OCc1ccccn1)c1ccccc1	36.1 µM (inactive)	58.6 µM (inactive)	16.6 µM (inactive)	> 100 µM (inactive)	–	48.1 µM (inactive)	> 100 µM (inactive)	52.7 µM (inactive)	51.6 µM (inactive)	73.6 µM (inactive)	53.6 µM (inactive)	> 100 µM (inactive)	70.6 µM (inactive)	–	67.6 µM (inactive)	23.5 µM (inactive)	20.6 µM (inactive)	> 100 µM (inactive)	29.3 µM (inactive)
COc1ccc2c(c1)CCc1c-2n(CCN(C)C)c2ccc(OC)cc12	18.7 µM (inactive)	33.9 µM (inactive)	16.1 µM (inactive)	22.6 µM (inactive)	94.2 µM (inactive)	3.77 µM (inactive)	11.2 µM (inactive)	31 µM (inactive)	12.5 µM (inactive)	16.8 µM (inactive)	12.1 µM (inactive)	5.46 µM (inactive)	14.2 µM (inactive)	10 µM (inactive)	16.3 µM (inactive)	–	31.2 µM (inactive)	9.42 µM (inactive)	15.5 µM (inactive)
CN(C)CCNC(=O)c1cccc2c1nc(-c1ccncc1)c1ccccc12	1.02 µM (active)	–	3.78 µM (inactive)	5.53 µM (inactive)	2.09 µM (inactive)	3.14 µM (inactive)	–	5.35 µM (inactive)	1.58 µM (inactive)	4.88 µM (inactive)	2.34 µM (inactive)	–	1.65 µM (inactive)	–	3.07 µM (inactive)	2.3 µM (inactive)	2.47 µM (inactive)	1.88 µM (inactive)	–
Cc1ccc(/N=N/N(C)C(=O)C(C)N)cc1 (stereo unspecified)	> 100 µM (inactive)	> 100 µM (inactive)	> 100 µM (inactive)	> 100 µM (inactive)	> 100 µM (inactive)	> 100 µM (inactive)	–	> 100 µM (inactive)	> 100 µM (inactive)	> 100 µM (inactive)	> 100 µM (inactive)	> 100 µM (inactive)	> 100 µM (inactive)	60.1 µM (inactive)	> 100 µM (inactive)	> 100 µM (inactive)	> 100 µM (inactive)	> 100 µM (inactive)	> 100 µM (inactive)
CCCN(CCC)C(=S)N/N=C/c1cccc(C)n1	0.0733 µM (active)	0.321 µM (active)	0.195 µM (active)	0.023 µM (active)	0.391 µM (active)	< 0.01 µM (active)	< 0.01 µM (active)	< 0.01 µM (active)	0.122 µM (active)	< 0.01 µM (active)	< 0.01 µM (active)	0.621 µM (active)	0.177 µM (active)	0.0194 µM (active)	0.275 µM (active)	0.151 µM (active)	0.552 µM (active)	0.303 µM (active)	–
CCCCOC(=O)C(=O)C(CC(C(=O)Cc1ccccc1)c1ccccc1)C(=O)C=C(C)C (stereo unspecified)	> 100 µM (inactive)	> 100 µM (inactive)	> 100 µM (inactive)	> 100 µM (inactive)	> 100 µM (inactive)	–	> 100 µM (inactive)	> 100 µM (inactive)	> 100 µM (inactive)	> 100 µM (inactive)	> 100 µM (inactive)	> 100 µM (inactive)	> 100 µM (inactive)	> 100 µM (inactive)	> 100 µM (inactive)	> 100 µM (inactive)	> 100 µM (inactive)	> 100 µM (inactive)	–
COc1ccccc1/C=C1/Sc2scc(CC(=O)Nc3ccccc3)[n+]2C1=O	38 µM (inactive)	27.7 µM (inactive)	34 µM (inactive)	47.6 µM (inactive)	17 µM (inactive)	–	23 µM (inactive)	16.9 µM (inactive)	31.3 µM (inactive)	47 µM (inactive)	33 µM (inactive)	20.2 µM (inactive)	28.9 µM (inactive)	20.3 µM (inactive)	28.6 µM (inactive)	22.6 µM (inactive)	30.9 µM (inactive)	14.4 µM (inactive)	–
COc1ccc(NC(=O)C(=O)C(CC2C(=O)NC(=S)NC2=O)C(=O)c2ccc3ccccc3c2)c([N+](=O)[O-])c1 (stereo unspecified)	> 100 µM (inactive)	> 100 µM (inactive)	–	> 100 µM (inactive)	> 100 µM (inactive)	> 100 µM (inactive)	> 100 µM (inactive)	> 100 µM (inactive)	> 100 µM (inactive)	> 100 µM (inactive)	> 100 µM (inactive)	> 100 µM (inactive)	> 100 µM (inactive)	> 100 µM (inactive)	> 100 µM (inactive)	–	> 100 µM (inactive)	> 100 µM (inactive)	> 100 µM (inactive)
CC1(C)C(OC(=O)c2ccccc2)C[C@]23CCC[C@](C)(C[C@@H](O)C12)C3 (stereo partly specified)	20.2 µM (inactive)	21.2 µM (inactive)	24 µM (inactive)	24.1 µM (inactive)	16 µM (inactive)	13.5 µM (inactive)	–	30.6 µM (inactive)	18.4 µM (inactive)	15.3 µM (inactive)	> 10 µM (inactive)	18.9 µM (inactive)	17.9 µM (inactive)	15.5 µM (inactive)	16.9 µM (inactive)	–	19.9 µM (inactive)	15.2 µM (inactive)	19.9 µM (inactive)
Cc1cnc2nc(-c3ccc(Cl)cc3)cc(O)c2c1	5.66 µM (inactive)	11.1 µM (inactive)	5.86 µM (inactive)	19.7 µM (inactive)	2.32 µM (inactive)	1.07 µM (active)	5.27 µM (inactive)	2.95 µM (inactive)	6.31 µM (inactive)	11.1 µM (inactive)	3.9 µM (inactive)	0.959 µM (active)	6.21 µM (inactive)	5.47 µM (inactive)	29.4 µM (inactive)	–	18.5 µM (inactive)	5.5 µM (inactive)	43 µM (inactive)
